Patent US5773442A, “Benzamidine derivatives and pharmaceutical composition containing them” (Yamanouchi Pharmaceutical Co., Ltd., priority 1995, dated 1998)
Each block holds one compound with its values, some of them ahead of it.

What was measured:
[1] = target: T1, GPIIb/IIIa (Homo sapiens, UniProt P05106+P08514); test: Bonding of fibrinogen to pure GPIIb/IIIa; format: binding; conditions: biotinated fibrinogen, 37° C., 3 hours
T1 construct: GPIIb/IIIa was purified according to a Fitzgerald et al's method; from tissue; host or cells: platelets (human, inferred from the cited Fitzgerald method)
T1 sequence (P08514 32-887 limits assumed): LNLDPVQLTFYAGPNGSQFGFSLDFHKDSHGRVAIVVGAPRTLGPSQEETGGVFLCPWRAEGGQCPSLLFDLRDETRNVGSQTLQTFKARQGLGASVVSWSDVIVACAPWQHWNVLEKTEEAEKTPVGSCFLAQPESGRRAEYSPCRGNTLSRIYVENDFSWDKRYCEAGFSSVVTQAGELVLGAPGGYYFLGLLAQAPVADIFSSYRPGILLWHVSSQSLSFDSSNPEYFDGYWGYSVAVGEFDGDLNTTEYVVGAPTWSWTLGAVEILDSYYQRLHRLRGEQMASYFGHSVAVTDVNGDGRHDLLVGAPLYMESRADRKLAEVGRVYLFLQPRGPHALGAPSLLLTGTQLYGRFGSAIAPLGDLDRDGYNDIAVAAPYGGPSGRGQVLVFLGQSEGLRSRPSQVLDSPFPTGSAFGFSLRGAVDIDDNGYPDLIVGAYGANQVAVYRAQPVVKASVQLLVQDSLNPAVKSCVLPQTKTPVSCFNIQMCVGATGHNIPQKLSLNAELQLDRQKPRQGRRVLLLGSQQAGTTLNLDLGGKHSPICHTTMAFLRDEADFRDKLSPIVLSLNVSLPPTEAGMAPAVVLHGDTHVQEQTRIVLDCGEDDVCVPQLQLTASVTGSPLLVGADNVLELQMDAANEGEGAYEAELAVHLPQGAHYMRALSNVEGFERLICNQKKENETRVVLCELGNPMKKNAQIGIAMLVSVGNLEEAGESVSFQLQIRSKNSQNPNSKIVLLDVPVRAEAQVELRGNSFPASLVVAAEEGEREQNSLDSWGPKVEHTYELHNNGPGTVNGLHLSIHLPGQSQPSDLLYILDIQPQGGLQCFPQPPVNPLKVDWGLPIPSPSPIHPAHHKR
T1 sequence (P08514 891-1039 limits assumed): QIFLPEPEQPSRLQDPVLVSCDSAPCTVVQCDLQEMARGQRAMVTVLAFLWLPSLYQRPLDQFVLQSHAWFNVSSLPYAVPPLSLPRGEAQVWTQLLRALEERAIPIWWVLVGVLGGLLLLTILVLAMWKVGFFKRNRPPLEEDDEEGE
T1 sequence (P05106 27-788): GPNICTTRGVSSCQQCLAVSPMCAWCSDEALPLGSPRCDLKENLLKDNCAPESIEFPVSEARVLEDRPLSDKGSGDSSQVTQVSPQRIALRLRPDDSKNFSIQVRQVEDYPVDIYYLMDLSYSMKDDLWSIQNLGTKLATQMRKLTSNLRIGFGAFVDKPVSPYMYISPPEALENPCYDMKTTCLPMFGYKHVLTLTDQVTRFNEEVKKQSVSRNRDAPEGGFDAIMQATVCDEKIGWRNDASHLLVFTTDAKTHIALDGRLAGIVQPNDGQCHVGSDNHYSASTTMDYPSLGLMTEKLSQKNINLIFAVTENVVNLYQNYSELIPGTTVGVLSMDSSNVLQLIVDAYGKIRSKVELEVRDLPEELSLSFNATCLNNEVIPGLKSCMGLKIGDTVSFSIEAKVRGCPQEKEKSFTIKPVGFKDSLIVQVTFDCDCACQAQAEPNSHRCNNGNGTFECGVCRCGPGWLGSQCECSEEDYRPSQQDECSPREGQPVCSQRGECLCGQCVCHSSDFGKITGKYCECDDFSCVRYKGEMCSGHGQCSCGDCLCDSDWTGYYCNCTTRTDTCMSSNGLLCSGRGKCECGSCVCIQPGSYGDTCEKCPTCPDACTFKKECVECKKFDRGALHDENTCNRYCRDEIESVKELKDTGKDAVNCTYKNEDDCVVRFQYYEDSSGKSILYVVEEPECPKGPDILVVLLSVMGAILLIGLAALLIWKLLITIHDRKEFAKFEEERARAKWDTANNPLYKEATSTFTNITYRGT
Experimental: Bonding of fibrinogen to pure GPIIb/IIIa: GPIIb/IIIa was purified according to a Fitzgerald et al's method. Fibrinogen was biotinated with NHS-LC-Biotin (manufactured by Pierce Co.). The pure GPIIb/IIIa was added to TBS (20 mM Tris-HCl, pH 7.4, 150 mM NaCl, 1 mM CaCl2, 1 mM MgCl2) at one μg/ml. 100 μl of the resulting solution was put into a 96-well plate (MaxiSorp™, manufactured by Nunc Co.) and left at 4° C. overnight. […] After the solution was removed, a sample compound to be tested and the biotinated fibrinogen were added to the plate and reacted at 37° C. for 3 hours. […] This was washed three times with 300 μl of T-TBS.

[2] = system: platelet aggregation (PRP; ADP and collagen as triggers); test: Ex vivo platelet aggregation-inhibiting activity in cynomolgus monkeys; conditions: 3 mg/kg via stomach tube, 20 μM ADP and 10 μg/ml collagen, mean ± SEM (n = 3)
Experimental: Ex vivo platelet aggregation-inhibiting activity in cynomolgus monkeys:
Cynomolgus monkeys that had been lightly anesthetized by intramuscular administration of ketamine hydrochloride were fixed on a work-bench, and a sample compound of the present invention as dissolved in 2 ml of […] was forcedly administered into its stomach via a stomach tube at a dose of 3 mg/kg. Before the administration and after the administration at a predetermined period of time, 3 ml (containing 1/10 times by volume of sodium citrate) of the blood was collected from the animal through its femoral vein. From the blood was obtained platelet-rich-plasma (PRP) of 300,000/μl, according to the De Marco et al's method (see J. clin. Invest., 77, 1272-1277, 1988). The PRP was adjusted at 3×10^8 /ml with an automatic blood cell counter (MEK-5158 Model, produced by Nihon Koden Co.) before use. Added thereto were 20 μM of ADP and 10 μg/ml of bovine tendon-derived collagen (produced by Niko Bioscience Co.) as triggers, whereby the aggregation of the platelets was caused in the PRP. The degree of the aggregation of the platelets was measured with a platelet aggregation meter (NBS Hematracer 801, produced by Niko Bioscience Co.). The platelet aggregation-inhibiting activity of the tested compound was represented by the inhibition percentage (%) relative to the maximum aggregation percentage of each animal before the addition of the compound thereto.

Structure (SMILES): Cl.N=C(N)c1ccc(N2CCN(C3CCN(CC(=O)O)CC3CC(=O)O)CC2)cc1 (centres unmarked) [Example 8, 4-[4-(4-Amidinophenyl)-1-piperazinyl]-1,3-piperidinediacetic acid hydrochloride]
- IC50 [1]: 8.4 nM
- platelet aggregation-inhibition ratio (%), 2 hours after [2]: 57 ± 20%
- platelet aggregation-inhibition ratio (%), 4 hours after [2]: 98 ± 1.0%
- platelet aggregation-inhibition ratio (%), 6 hours after [2]: 98 ± 1.2%
- platelet aggregation-inhibition ratio (%), 9 hours after [2]: 81 ± 19%
- platelet aggregation-inhibition ratio (%), 12 hours after [2]: 100 ± 0%
- platelet aggregation-inhibition ratio (%), 24 hours after [2]: 24 ± 9.1%

- IC50 [1]: 10.4 nM
Structure (SMILES): N=C(N)c1ccc(N2CC(=O)N(C3CCN(CC(=O)O)CC3)CC2=O)cc1 [Example 16, 4-[4-(4-amidinophenyl)-2,5-dioxo-1-piperazinyl]-1-piperidineacetic acid]

Structure (SMILES): N=C(N)c1ccc(N2CCN(C3CCN(CC(=O)O)CC3)CC2=O)cc1 [Example 18, 4-[4-(4-Amidinophenyl)-3-oxo-1-piperazinyl]-1-piperidineacetic acid]
- platelet aggregation-inhibition ratio (%), 2 hours after [2]: 86 ± 8.4%
- platelet aggregation-inhibition ratio (%), 4 hours after [2]: 98 ± 0.9%
- platelet aggregation-inhibition ratio (%), 6 hours after [2]: 75 ± 25%
- platelet aggregation-inhibition ratio (%), 9 hours after [2]: 97 ± 1.7%
- platelet aggregation-inhibition ratio (%), 12 hours after [2]: 99 ± 0.7%
- platelet aggregation-inhibition ratio (%), 24 hours after [2]: 34 ± 11%
